Data as given in patent publication US10703740B2, “Substituted benzimidazoles, their preparation and their use as pharmaceuticals” (NEOMED Institute, priority 2015, dated 2020).

Target: BRD4(BD1) (Homo sapiens (Human), UniProt O60885)
Experiment: In vitro bromodomain inhibition assay (AlphaLISA)
Type: binding
Conditions: His-tagged BRD4 BD1 200 nM, biotinylated H4-tetraacetyl peptide 200 nM
Description: To measure activity of bromodomain inhibitors, a His-epitope tagged BRD4 BD149-170 is purchased from BPS Bioscience. BRD4 binding and inhibition is assessed by monitoring the engagement of biotinylated H4-tetraacetyl peptide (H4K5/8/12/16; AnaSpec #64989-025) with the target using the AlphaLISA technology (Perkin-Elmer). Specifically, in a 384 well OptiPlate, BRD4(BD1) (200 nM final) is pre-incubated with either DMSO (final 1.0% DMSO) or a compound dilution series in DMSO. All reagents are diluted in assay buffer containing 50 mM HEPES (pH 7.4), 100 mM NaCl, 0.1% (w/v) BSA, and 0.05% (w/v) CHAPS. After a 30 minute incubation at rt, H4 peptide is added (200 nM final) and the reaction is incubated an additional 30 minutes at rt. Alpha streptavidin donor beads and AlphaLISA nickel chelate acceptor beads are then added to a final concentration of 10 μg/mL each. After one hour, equilibration plates are read on an Envision instrument and IC50s calculated using a four parameter non-linear curve fit (results are shown in Table 1).

| IC50 [nM] | Compound |
| --- | --- |
| 140 | Cc1cc(-c2ccc3nc(C4CCOCC4)n(CCOC(F)(F)F)c3c2)cn(C)c1=O [Compound 1, 1,3-dimethyl-5-[2-tetrahydropyran-4-yl-3-[2-(trifluoromethoxy)ethyl]benzimidazol-5-yl]pyridin-2-one] |
| 210 | COCCn1c(C)nc2ccc(-c3cc(C)c(=O)n(C)c3)cc21 [Compound 8, 5-[3-(2-methoxyethyl)-2-methyl-benzimidazol-5-yl]-1,3-dimethylpyridin-2-one] |
| 130 | CC(=O)N1CCC(c2nc3ccc(-c4cc(C)c(=O)n(C)c4)cc3n2CCOC(F)(F)F)CC1 [Compound 4, 5-[2-(1-acetyl-4-piperidyl)-3-[2-(trifluoromethoxy)ethyl]benzimidazol-5-yl]-1,3-dimethylpyridin-2-one] |
| 98 | COC[C@@H](C)n1c(C)nc2ccc(-c3cc(C)c(=O)n(C)c3)cc21 [Compound 11, 5-[3-[(1R)-2-methoxy-1-methyl-ethyl]-2-methyl-benzimidazol-5-yl]-1,3-dimethyl pyridin-2-one] |
| 220 | COCCn1c(C2CCOCC2)nc2ccc(-c3cc(C)c(=O)n(C)c3)cc21 [Compound 9, 5-[3-(2-methoxyethyl)-2-tetrahydropyran-4-yl-benzimidazol-5-yl]-1,3-dimethyl pyridin-2-one] |

Test system: human C-Myc transcription in MV-4-11 cells
Experiment: Transcription of human C-Myc in human leukemic MV-4-11 cells (QuantiGene 2.0)
Type: cell-based
Conditions: Homo sapiens, MV4-11, 4 h, inhibition of C-Myc mRNA, 4 hours treatment, read-out: IC50 MV-4-11 Cell
Description: The effect of compounds on transcription of human C-Myc gene is monitored in human B-myelomonocytic leukemia cell line MV-4-11 (from American Type Culture Collection (ATCC), Manassas, Va., USA) using QuantiGene 2.0 assay kit (Affymetrix, Santa Clara, Calif., USA).
Typically, 8,000 MV-4-11 cells are plated in sterile 96-well plates (Costar #3598 from Fisher Scientific Canada, Ottawa, Ontario, Canada) in Iscove's medium supplemented with 10% fetal bovine serum, glutamine (2 mM), and penicillin (100 I.U.) and streptomycin (100 μg/mL) (all from Wisent Inc., St. Bruno, Quebec, Canada). Compounds are dissolved in DMSO at 30 mM. A series of 1:3 dilutions are first made in DMSO, and further 1:100 dilutions are made in serum-containing cell culture media. The final concentration of DMSO is 0.1% in cell culture media. After cells are treated with various concentrations of test compound for 4 hours, cells are lysed using Quantigene 2.0 sample processing kit (# QS0100). C-Myc mRNA is detected using a QuantiGene 2.0 assay kit (# QS0009) with gene-specific probe to human C-Myc (# SA-50182) following the manufacturer's recommendations. Luminescene signals are read on Flexstation II microplate reader (Molecular Devices, Sunnyvale, Calif., USA).

| Compound | IC50 [nM] |
| --- | --- |
| Cc1cc(-c2ccc3nc(C4CCOCC4)n(CCOC(F)(F)F)c3c2)cn(C)c1=O [Compound 1, 1,3-dimethyl-5-[2-tetrahydropyran-4-yl-3-[2-(trifluoromethoxy)ethyl]benzimidazol-5-yl]pyridin-2-one] | 76 |
| COCCn1c(C)nc2ccc(-c3cc(C)c(=O)n(C)c3)cc21 [Compound 8, 5-[3-(2-methoxyethyl)-2-methyl-benzimidazol-5-yl]-1,3-dimethylpyridin-2-one] | 790 |
| CC(=O)N1CCC(c2nc3ccc(-c4cc(C)c(=O)n(C)c4)cc3n2CCOC(F)(F)F)CC1 [Compound 4, 5-[2-(1-acetyl-4-piperidyl)-3-[2-(trifluoromethoxy)ethyl]benzimidazol-5-yl]-1,3-dimethylpyridin-2-one] | 89 |
| COC[C@@H](C)n1c(C)nc2ccc(-c3cc(C)c(=O)n(C)c3)cc21 [Compound 11, 5-[3-[(1R)-2-methoxy-1-methyl-ethyl]-2-methyl-benzimidazol-5-yl]-1,3-dimethyl pyridin-2-one] | 170 |
| COCCn1c(C2CCOCC2)nc2ccc(-c3cc(C)c(=O)n(C)c3)cc21 [Compound 9, 5-[3-(2-methoxyethyl)-2-tetrahydropyran-4-yl-benzimidazol-5-yl]-1,3-dimethyl pyridin-2-one] | 250 |
| CCO[C@@H](C)Cn1c(C2CC(F)(F)C2)nc2ccc(-c3cc(C)c(=O)n(C)c3)cc21 [Compound 53, (S)-5-(2-(3,3-difluorocyclobutyl)-1-(2-ethoxypropyl)-1H-benzo[d]imidazol-6-yl)-1,3-dimethylpyridin-2(1H)-one] | 76 |
| Cc1cc(-c2ccc3nc(C4CC(F)(F)C4)n(CCOC(F)(F)F)c3c2)cn(C)c1=O [Compound 27, 5-[2-(3,3-difluorocyclobutyl)-3-[2-(trifluoromethoxy)ethyl]benzimidazol-5-yl]-1,3-dimethylpyridin-2-one] | 92 |
| CO[C@H](C)Cn1c(C2CCC(F)(F)CC2)nc2ccc(-c3cc(C)c(=O)n(C)c3)cc21 [Compound 58, (R)-5-(2-(4,4-difluorocyclohexyl)-1-(2-methoxypropyl)-1H-benzo[d]imidazol-6-yl)-1,3-dimethylpyridin-2(1H)-one] | 160 |
| COC[C@@H](C)n1c(C(F)(F)F)nc2ccc(-c3cc(C)c(=O)n(C)c3)cc21 [Compound 26, 5-[3-[(1R)-2-methoxy-1-methyl-ethyl]-2-(trifluoromethyl)benzimidazol-5-yl]-1,3-dimethylpyridin-2-one] | 230 |
| Cn1cc(-c2ccc3nc(C4CC4)n(CCOC(F)(F)F)c3c2)cc(C2CC2)c1=O [Compound 19, 3-cyclopropyl-5-[2-cyclopropyl-3-[2-(trifluoromethoxy)ethyl]benzimidazol-5-yl]-1-methylpyridin-2-one] | 870 |
| CO[C@@H](C)Cn1c(C2CCC(F)(F)CC2)nc2ccc(-c3cc(C)c(=O)n(C)c3)cc21 [Compound 59, (S)-5-(2-(4,4-difluorocyclohexyl)-1-(2-methoxypropyl)-1H-benzo[d]imidazol-6-yl)-1,3-dimethylpyridin-2(1H)-one] | 90 |
| CCO[C@H](C)Cn1c(C2CCOCC2)nc2ccc(-c3cc(C)c(=O)n(C)c3)cc21 [Compound 39, (R)-5-(1-(2-ethoxypropyl)-2-(tetrahydro-2H-pyran-4-yl)-1H-benzo[d]imidazol-6-yl)-1,3-dimethylpyridin-2(1H)-one] | 84 |
| COC[C@H](C)n1c(C2CCC(F)(F)CC2)nc2ccc(-c3cc(C)c(=O)n(C)c3)cc21 [Compound 56, (S)-5-(2-(4,4-difluorocyclohexyl)-1-(1-methoxypropan-2-yl)-1H-benzo[d]imidazol-6-yl)-1,3-dimethylpyridin-2(1H)-one] | 220 |
| COC[C@@H](C)n1c(CC2CCOCC2)nc2ccc(-c3cc(C)c(=O)n(C)c3)cc21 [Compound 50, (R)-5-(1-(1-methoxypropan-2-yl)-2-((tetrahydro-2H-pyran-4-yl)methyl)-1H-benzo[d]imidazol-6-yl)-1,3-dimethylpyridin-2(1H)-one] | 160 |
| COCCn1c(C2CCC(F)(F)CC2)nc2ccc(-c3cc(C)c(=O)n(C)c3)cc21 [Compound 44, 5-(2-(4,4-difluorocyclohexyl)-1-(2-methoxyethyl)-1H-benzo[d]imidazol-6-yl)-1,3-dimethylpyridin-2(1H)-one] | 98 |
| Cc1cc(-c2ccc3nc(CC4CCOCC4)n(CCOC(F)(F)F)c3c2)cn(C)c1=O [Compound 43, 1,3-dimethyl-5-(2-((tetrahydro-2H-pyran-4-yl)methyl)-1-(2-(trifluoromethoxy)ethyl)-1H-benzo[d]imidazol-6-yl)pyridin-2(1H)-one] | 27 |
| Cc1cc(-c2ccc3nc(C4CCOCC4)n(CCOCC(F)(F)F)c3c2)cn(C)c1=O [Compound 41, 1,3-dimethyl-5-(2-(tetrahydro-2H-pyran-4-yl)-1-(2-(2,2,2-trifluoroethoxy)ethyl)-1H-benzo[d]imidazol-6-yl)pyridin-2(1H)-one] | 23 |
| CNc1cc(-c2ccc3nc(C4CC4)n(CCOC(F)(F)F)c3c2)cn(C)c1=O [Compound 20, 5-[2-cyclopropyl-3-[2-(trifluoromethoxy)ethyl]benzimidazol-5-yl]-1-methyl-3-(methylamino)pyridin-2-one] | 240 |

More lines, now with the values ahead:

| IC50 [nM] | Compound |
| --- | --- |
| 200 | Cc1cc(-c2ccc3nc([C@H]4CCCO4)n(CCOC(F)(F)F)c3c2)cn(C)c1=O (stereo in doubt) [Compound 30a, 1,3-dimethyl-5-[2-tetrahydrofuran-2-yl-3-[2-(trifluoromethoxy)ethyl]benzimidazol-5-yl]pyridin-2-one] |
| 87 | Cc1cc(-c2ccc3nc([C@@H]4CCCO4)n(CCOC(F)(F)F)c3c2)cn(C)c1=O (stereo in doubt) [Compound 30b, 1,3-dimethyl-5-[2-tetrahydrofuran-2-yl-3-[2-(trifluoromethoxy)ethyl]benzimidazol-5-yl]pyridin-2-one] |
| 50 | CO[C@H]1C[C@H](c2nc3ccc(-c4cc(C)c(=O)n(C)c4)cc3n2CCOC(F)(F)F)C1 [Compound 28a] |

Same assay, conditions: inhibition of C-Myc mRNA, 4 hours treatment, read-out: IC50 MV-4-11 Cell

| Compound | IC50 [nM] |
| --- | --- |
| COC1CC(c2nc3ccc(-c4cc(C)c(=O)n(C)c4)cc3n2CCOC(C)C)C1 (stereo not drawn) [Compound 64, 5-[1-(2-isopropoxyethyl)-2-(3-methoxycyclobutyl)-1H-benzo[d]imidazol-6-yl]-1,3-dimethylpyridin-2(1H)-one] | 51 |
| 5-[2-(3-methoxycyclobutyl)-1-(2-(2,2,2-trifluoroethoxy)ethyl)-1H-benzo[d]imidazol-6-yl]-1,3-dimethylpyridin-2(1H)-one [Compound 63] | 17 |

Further lines, results first:

| IC50 [nM] | Compound |
| --- | --- |
| 77 | Cc1cc(-c2ccc3nc(C4CCOC4)n(CCOC(F)(F)F)c3c2)cn(C)c1=O (single isomer, unassigned) [Compound 29b, 1,3-dimethyl-5-[2-tetrahydrofuran-3-yl-3-[2-(trifluoromethoxy)ethyl]benzimidazol-5-yl]pyridin-2-one] |
| 180 | COC(C)Cn1c(C2CCOCC2)nc2ccc(-c3cc(C)c(=O)n(C)c3)cc21 (single isomer, unassigned) [Compound 35a, 5-[3-(2-methoxypropyl)-2-tetrahydropyran-4-yl-benzimidazol-5-yl]-1,3-dimethyl pyridin-2-one] |
| 220 | Cc1cc(-c2ccc3nc(C4CCOC4)n(CCOC(F)(F)F)c3c2)cn(C)c1=O (single isomer, unassigned) [Compound 29a, 1,3-dimethyl-5-[2-tetrahydrofuran-3-yl-3-[2-(trifluoromethoxy)ethyl]benzimidazol-5-yl]pyridin-2-one] |
| 250 | Cc1cc(-c2ccc3nc(C4CCOCC4)n(CC(C)C(F)(F)F)c3c2)cn(C)c1=O (stereo not drawn) [Compound 46b, 1,3-dimethyl-5-(2-(tetrahydro-2H-pyran-4-yl)-1-(3,3,3-trifluoro-2-methylpropyl)-1H-benzo[d]imidazol-6-yl)pyridin-2(1H)-one] |
| 86 | COC(C)Cn1c(C2CCOCC2)nc2ccc(-c3cc(C)c(=O)n(C)c3)cc21 (single isomer, unassigned) [Compound 35b, 5-[3-(2-methoxypropyl)-2-tetrahydropyran-4-yl-benzimidazol-5-yl]-1,3-dimethyl pyridin-2-one] |
